Source: US8956622B2, “Peptidic antagonists of class III semaphorins/neuropilins complexes” (INSERM—Institut National de la Sante et de la Recherche …, priority 2005, dated 2015)

Target: T1, NRP1 (Rattus norvegicus, UniProt Q9QWJ9)
T1 construct: Rat C6 glioma cells, which express semaphorin receptors; endogenous in cells; host or cells: rat C6 glioma cells
Assay: AP-Sema3A binding to its receptor NRP1 on C6 glioma cells (luminescence)
Protocol: In order to investigate the NRP1 transmembrane domain role in the linkage NRP1-class III semaphorins, the binding of the ligand Sema3A to its receptor NRP1 on glioma cells was measured in the presence or not of the transmembrane domain peptide of NRP1 (pTM-NRP1 peptide; SEQ ID NO. 1) or of a mutated peptide (mpTM-NRP1; SEQ ID NO. 20, […]). These pTM-NRP1 Peptides have been synthesized by automatic peptidic synthesis (Fmoc chemistry, APPLIED SYSTEM), and analyzed by mass spectrometry. Peptides purity has been estimated by RP-HPLC (BECKMAN) as higher than 90%.
Rat C6 glioma cells, which express semaphorin receptors, has been used to determine the binding capacity of AP-Sema3A, a secreted alkaline phosphatase version of Sema 3A (ADAMS et al., 1997, BAGNARD et al., 1998). These cells were grown and plated in MEM medium (GIBCO) with 10% foetal calf serum (PERBIO), glutamine 0.5 mM (GIBCO) and antibiotics: 100 U/ml penicillin and 100 μg/ml streptomycin (SIGMA).
C6 Cells were cultured in 96-well plates and incubated with or without freshly diluted pTM-NRP1 or pTM-NRP1^mut peptides (10^−12 M to 10^−10 M) for 1 hour at 37° C. The culture medium has been then replaced by conditioned medium of HEK cells stably transfected with a construction expressing AP-Sema 3A (ADAMS et al., EMBO J., vol. 16(20), p: 6077-86, 1997; BAGNARD et al., 1998). Conditioned medium from HEK non transfected cells has been used as an internal control. The pTM-NRP1 Peptide has been synthesized by automatic peptidic synthesis (Fmoc chemistry, APPLIED SYSTEM), and analyzed by mass spectrometry. Peptides purity has been estimated by RP-HPLC (BECKMAN) as higher than 90%, the cells have been washed with PBS and incubated with 50 μl of alkaline phosphatase luminescent substrate (AMERSHAM). The luminescence has been read after 15 minutes with MICROLUMAT PLUS system (BERTHOLD TECHNOLOGIES) according to the manufacturer's instructions. Experiments were done 4 times for each peptide.

decrease of binding of AP-Sema3A to NRP1 compared to the absence of peptide (C6 cells, peptide 10^−10 M): about 50%
binding of AP-Sema3A to its receptor NRP1 on C6 cells (peptide 10^−12 M to 10^−10 M, 1 hour): blocked in a dose dependent manner
Sequence: ILITIIAMSALGVLLGAVCGVVL [pTM-NRP1]
